Bounds are passed on as bounds.

Chain of UniProt O43681 (O43681 whole entry): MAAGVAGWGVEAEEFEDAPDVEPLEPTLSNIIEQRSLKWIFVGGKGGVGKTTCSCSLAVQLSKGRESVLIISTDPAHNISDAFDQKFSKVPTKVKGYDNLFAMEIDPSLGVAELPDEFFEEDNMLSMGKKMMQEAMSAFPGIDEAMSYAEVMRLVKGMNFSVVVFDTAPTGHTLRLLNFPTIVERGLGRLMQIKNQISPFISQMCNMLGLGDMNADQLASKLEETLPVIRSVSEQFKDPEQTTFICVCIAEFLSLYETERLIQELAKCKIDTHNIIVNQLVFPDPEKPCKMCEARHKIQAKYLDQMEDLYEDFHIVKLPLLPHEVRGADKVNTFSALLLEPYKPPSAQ
Chain of UniProt P04632 (P04632 whole entry): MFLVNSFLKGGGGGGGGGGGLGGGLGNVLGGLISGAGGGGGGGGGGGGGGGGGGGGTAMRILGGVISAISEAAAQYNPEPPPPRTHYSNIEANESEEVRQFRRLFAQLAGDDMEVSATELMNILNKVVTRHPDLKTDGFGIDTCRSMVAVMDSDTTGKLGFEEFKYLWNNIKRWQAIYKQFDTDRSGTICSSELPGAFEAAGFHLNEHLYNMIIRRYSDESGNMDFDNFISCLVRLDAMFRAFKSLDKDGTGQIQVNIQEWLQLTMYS
Chain of UniProt P08133 (P08133 whole entry): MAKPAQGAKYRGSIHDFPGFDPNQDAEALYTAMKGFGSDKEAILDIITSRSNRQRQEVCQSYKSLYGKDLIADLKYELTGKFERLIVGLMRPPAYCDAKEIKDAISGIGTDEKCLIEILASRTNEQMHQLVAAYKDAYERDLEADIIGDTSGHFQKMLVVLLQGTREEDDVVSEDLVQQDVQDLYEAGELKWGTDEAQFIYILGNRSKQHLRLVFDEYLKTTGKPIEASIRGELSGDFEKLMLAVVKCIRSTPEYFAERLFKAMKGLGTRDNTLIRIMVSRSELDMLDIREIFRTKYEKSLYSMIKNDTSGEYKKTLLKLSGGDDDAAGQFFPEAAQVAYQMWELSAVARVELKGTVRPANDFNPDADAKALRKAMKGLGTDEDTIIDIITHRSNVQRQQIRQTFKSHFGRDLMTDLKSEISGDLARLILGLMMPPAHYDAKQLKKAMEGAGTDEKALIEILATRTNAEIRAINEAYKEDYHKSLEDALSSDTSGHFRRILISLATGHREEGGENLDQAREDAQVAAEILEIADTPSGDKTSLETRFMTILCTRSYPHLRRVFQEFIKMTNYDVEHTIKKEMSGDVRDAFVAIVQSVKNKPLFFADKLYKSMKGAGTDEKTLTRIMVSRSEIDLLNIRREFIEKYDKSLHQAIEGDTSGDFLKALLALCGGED
Chain of UniProt P33527 (P33527 whole entry, looked up): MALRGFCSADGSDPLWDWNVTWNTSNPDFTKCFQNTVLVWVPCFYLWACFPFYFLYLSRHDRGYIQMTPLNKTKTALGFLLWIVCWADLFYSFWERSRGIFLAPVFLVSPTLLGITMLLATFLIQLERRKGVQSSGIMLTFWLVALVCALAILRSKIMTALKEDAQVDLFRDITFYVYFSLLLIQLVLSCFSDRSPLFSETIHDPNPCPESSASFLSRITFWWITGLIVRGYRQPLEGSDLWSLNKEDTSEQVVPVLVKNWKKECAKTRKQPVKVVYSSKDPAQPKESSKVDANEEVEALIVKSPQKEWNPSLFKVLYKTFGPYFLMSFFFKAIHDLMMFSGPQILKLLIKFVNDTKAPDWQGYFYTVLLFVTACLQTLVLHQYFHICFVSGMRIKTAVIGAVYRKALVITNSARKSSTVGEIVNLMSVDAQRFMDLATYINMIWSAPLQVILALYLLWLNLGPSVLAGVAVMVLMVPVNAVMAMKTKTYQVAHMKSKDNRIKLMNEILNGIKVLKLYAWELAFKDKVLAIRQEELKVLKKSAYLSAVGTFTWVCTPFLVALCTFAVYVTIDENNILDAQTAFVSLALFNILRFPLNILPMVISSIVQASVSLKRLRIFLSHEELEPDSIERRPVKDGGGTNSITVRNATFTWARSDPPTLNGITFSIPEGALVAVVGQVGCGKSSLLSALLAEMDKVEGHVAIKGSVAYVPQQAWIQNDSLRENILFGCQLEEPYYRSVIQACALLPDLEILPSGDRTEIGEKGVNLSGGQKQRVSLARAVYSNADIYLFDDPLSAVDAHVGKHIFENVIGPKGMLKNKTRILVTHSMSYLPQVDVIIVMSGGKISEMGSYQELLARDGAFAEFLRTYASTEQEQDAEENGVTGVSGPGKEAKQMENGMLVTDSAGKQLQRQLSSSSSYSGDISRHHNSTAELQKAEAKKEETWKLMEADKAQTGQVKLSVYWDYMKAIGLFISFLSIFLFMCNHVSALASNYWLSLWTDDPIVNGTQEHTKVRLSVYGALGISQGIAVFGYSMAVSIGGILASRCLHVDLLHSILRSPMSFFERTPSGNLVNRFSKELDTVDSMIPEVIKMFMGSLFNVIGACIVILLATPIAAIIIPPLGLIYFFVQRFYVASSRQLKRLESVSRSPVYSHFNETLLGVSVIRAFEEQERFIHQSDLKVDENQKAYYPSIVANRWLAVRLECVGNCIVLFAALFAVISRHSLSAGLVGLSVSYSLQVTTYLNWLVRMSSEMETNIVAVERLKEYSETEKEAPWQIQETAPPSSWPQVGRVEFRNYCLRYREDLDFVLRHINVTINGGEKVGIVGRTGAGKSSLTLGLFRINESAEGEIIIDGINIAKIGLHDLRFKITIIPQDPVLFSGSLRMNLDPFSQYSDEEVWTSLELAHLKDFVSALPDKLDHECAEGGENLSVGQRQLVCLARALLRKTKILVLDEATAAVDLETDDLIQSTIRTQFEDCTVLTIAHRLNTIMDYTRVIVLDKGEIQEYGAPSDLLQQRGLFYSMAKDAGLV
Chain of UniProt Q9NVT9 (Q9NVT9 whole entry): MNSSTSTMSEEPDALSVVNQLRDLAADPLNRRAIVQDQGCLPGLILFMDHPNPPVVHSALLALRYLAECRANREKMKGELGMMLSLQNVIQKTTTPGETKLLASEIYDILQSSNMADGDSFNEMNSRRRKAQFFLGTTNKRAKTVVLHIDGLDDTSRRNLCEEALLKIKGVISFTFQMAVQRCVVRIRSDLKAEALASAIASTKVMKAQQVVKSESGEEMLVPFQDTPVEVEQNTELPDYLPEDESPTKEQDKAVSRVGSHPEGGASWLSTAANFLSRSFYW
Chain of UniProt Q9Y376 (Q9Y376 whole entry): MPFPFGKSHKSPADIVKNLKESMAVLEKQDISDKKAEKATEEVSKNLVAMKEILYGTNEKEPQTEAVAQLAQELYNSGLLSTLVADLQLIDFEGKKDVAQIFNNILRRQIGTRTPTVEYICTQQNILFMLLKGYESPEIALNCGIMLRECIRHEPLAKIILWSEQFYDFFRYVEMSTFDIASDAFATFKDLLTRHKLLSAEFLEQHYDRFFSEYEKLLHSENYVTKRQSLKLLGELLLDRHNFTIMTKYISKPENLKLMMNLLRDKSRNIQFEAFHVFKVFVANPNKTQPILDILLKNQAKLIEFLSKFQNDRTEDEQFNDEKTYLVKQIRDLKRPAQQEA
Chain of UniProt Q9NUQ2 (Q9NUQ2 whole entry): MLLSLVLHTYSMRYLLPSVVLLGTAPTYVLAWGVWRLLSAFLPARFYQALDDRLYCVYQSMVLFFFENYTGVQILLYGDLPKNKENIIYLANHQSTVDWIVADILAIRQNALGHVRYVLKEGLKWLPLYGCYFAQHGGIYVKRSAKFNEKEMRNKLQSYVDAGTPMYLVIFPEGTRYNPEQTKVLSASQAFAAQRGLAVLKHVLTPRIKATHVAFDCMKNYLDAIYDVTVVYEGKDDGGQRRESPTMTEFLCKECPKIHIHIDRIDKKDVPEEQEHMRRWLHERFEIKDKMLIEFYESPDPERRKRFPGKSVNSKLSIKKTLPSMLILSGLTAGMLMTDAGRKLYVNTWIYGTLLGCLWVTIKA
Chain of UniProt P49588 (P49588 whole entry): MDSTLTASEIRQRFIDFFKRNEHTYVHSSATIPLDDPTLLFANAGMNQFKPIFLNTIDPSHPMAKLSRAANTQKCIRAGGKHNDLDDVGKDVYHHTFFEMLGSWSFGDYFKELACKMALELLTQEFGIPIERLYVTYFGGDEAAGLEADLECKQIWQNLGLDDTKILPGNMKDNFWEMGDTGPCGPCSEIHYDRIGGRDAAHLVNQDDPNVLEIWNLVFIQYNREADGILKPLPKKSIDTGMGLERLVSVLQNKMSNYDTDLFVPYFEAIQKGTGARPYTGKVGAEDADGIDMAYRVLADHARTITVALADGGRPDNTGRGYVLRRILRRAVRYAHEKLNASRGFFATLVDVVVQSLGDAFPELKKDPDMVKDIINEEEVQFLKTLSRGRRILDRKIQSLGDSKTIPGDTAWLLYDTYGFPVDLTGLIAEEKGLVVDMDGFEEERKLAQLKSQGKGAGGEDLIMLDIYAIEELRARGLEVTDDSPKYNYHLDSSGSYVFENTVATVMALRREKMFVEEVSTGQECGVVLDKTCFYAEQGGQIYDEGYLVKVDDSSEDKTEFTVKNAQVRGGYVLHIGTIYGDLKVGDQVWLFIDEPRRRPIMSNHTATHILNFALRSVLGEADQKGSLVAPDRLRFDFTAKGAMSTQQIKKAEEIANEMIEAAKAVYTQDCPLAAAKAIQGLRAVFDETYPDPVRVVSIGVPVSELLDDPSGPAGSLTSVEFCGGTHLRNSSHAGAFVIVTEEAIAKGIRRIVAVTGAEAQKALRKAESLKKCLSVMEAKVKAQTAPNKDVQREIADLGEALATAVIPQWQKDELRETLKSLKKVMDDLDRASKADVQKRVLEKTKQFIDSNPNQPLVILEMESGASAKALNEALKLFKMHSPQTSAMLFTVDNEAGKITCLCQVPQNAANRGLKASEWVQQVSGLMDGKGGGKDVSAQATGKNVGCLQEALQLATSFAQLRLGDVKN
Chain of UniProt P07741 (P07741 whole entry): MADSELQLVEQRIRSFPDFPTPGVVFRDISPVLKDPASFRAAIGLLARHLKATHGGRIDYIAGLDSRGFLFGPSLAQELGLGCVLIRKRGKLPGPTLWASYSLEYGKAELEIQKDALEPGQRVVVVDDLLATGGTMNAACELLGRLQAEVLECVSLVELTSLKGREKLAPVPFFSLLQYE

Compound in the test: Nc1ncnc2c1ncn2[C@@H]1O[C@H](COP(=O)(O)OP(=O)(O)OP(=O)(O)O)[C@@H](O)[C@H]1O [adenosine triphosphate]
Put plainly: pEC50 of ATP-induced change in protein thermal stability (2D-TPP). As to the method: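 2D thermal proteome profiling in mechanically disrupted Jurkat crude lysate. Lysate was treated 10 min at room temperature with Na-ATP (0, 0.005, 0.05, 0.5, 2 mM), heated to 12 temperatures (42-63.9 °C) for 3 min, and soluble protein was quantified by TMT10 LC-MS/MS. pEC50 is the median over replicates of dose-response fits at the lowest temperature showing a fold change of at least 1.5 (FDR-controlled hits).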
Broadly, the pEC50 is the negative decadic logarithm of the EC50, by convention in mol/L. A0AVT1 (effect direction: stabilized): the negative-log EC50 (pEC50) turned out to be 4.35.
The figure for “AARS2 (effect direction: stabilized) (UniProt Q5JTZ9)” is 3.29.
In the case of “AARS (effect direction: stabilized) (UniProt P49588)” it was 4.2.
In the case of “ABCB8 (effect direction: stabilized) (UniProt Q9NUT2)” it was 3.5; in that of “ABCB10 (effect direction: stabilized) (UniProt Q9NRK6)”, 4.06.
Take “ABCC1 (effect direction: stabilized) (UniProt P33527)”: the pEC50 was found to be 3.46.
In the case of “ACADM (effect direction: stabilized) (UniProt P11310)” it was less than 2.7; in that of “ACLY (effect direction: stabilized) (UniProt P53396)”, 3.16; in that of “ACSL1 (effect direction: stabilized) (UniProt P33121)”, 3.63.
With “ACSL6 (effect direction: stabilized) (UniProt Q9UKU0)”, the pEC50 was found to be 3.69.
The figure for “ACTL6A (effect direction: stabilized) (UniProt O96019)” is 3.4; for “ACTR1B (effect direction: stabilized) (UniProt P42025)” it is 4.23.
In the case of “ACTR10 (effect direction: destabilized) (UniProt Q9NZ32)” it was less than 2.7.
In the case of “ADK (effect direction: stabilized) (UniProt P55263)” it was 3.82.
As for “ADRM1 (effect direction: stabilized) (UniProt Q16186)”, the negative logarithm of the EC50 (pEC50) came to 4.04.
The figure for “AFF4 (effect direction: stabilized) (UniProt Q9UHB7)” is 3.8; for “AGK (effect direction: stabilized) (UniProt Q53H12)” it is 2.97; for “AGPAT5 (effect direction: stabilized) (UniProt Q9NUQ2)” it is 3.89.
Turning to “AHCY (effect direction: stabilized) (UniProt P23526)”, the pEC50 amounted to 4.33.
In the case of “AHSA1 (effect direction: stabilized) (UniProt O95433)” it was less than 2.7; in that of “AIP (effect direction: stabilized) (UniProt O00170)”, less than 2.7.
In the case of “AK2 (effect direction: stabilized) (UniProt P54819)” it was 4.01; in that of “ALDH5A1 (effect direction: stabilized) (UniProt P51649)”, 3.06; in that of “ALDH6A1 (effect direction: stabilized) (UniProt Q02252)”, 3.53.
The figure for “ALDH9A1 (effect direction: stabilized) (UniProt P49189)” is 2.9.
As for “ALDH18A1 (effect direction: stabilized) (UniProt P54886)”, the pEC50 was found to be 3.12.
In the case of “ALKBH5 (effect direction: stabilized) (UniProt Q6P6C2)” it was 3.65; in that of “AMPD3 (effect direction: stabilized) (UniProt Q01432)”, 2.95; in that of “ANKMY2 (effect direction: stabilized) (UniProt Q8IV38)”, less than 2.7.
In the case of “ANP32A (effect direction: stabilized) (UniProt P39687)” it was less than 2.7.
The figure for “ANP32E (effect direction: stabilized) (UniProt Q9BTT0)” is less than 2.7; for “ANXA5 (effect direction: stabilized) (UniProt P08758)” it is 2.79; for “ANXA6 (effect direction: stabilized) (UniProt P08133)” it is less than 2.7.
Consider “APRT (effect direction: destabilized) (UniProt P07741)”, for which the pEC50 was found to be 4.41.
As to “ARG2 (effect direction: destabilized) (UniProt P78540)”, the pEC50 was determined as 3.17.
In the case of “ARHGAP1 (effect direction: stabilized) (UniProt Q07960)” it was 3.14.
The figure for “ARHGDIB (effect direction: stabilized) (UniProt P52566)” is less than 2.7.
Consider “ARID1A (effect direction: stabilized) (UniProt O14497)”, for which the negative logarithm of the EC50 (pEC50) was less than 2.7.
The figure for “ARMC1 (effect direction: stabilized) (UniProt Q9NVT9)” is less than 2.7.
The figure for “ARPC3 (effect direction: stabilized) (UniProt O15145)” is 2.88.
In the case of “ARPC5L (effect direction: stabilized) (UniProt Q9BPX5)” it was 4.05; in that of “ASNA1 (effect direction: stabilized) (UniProt O43681)”, 3.31.
Regarding “ASNS (effect direction: stabilized) (UniProt P08243)”, the pEC50 came to 3.18.
The figure for “ASPSCR1 (effect direction: stabilized) (UniProt Q9BZE9)” is 3.92; for “ASS1 (effect direction: stabilized) (UniProt P00966)” it is 3.66; for “ATAD2B (effect direction: destabilized) (UniProt Q9ULI0)” it is 3.06.
The figure for “ATG7 (effect direction: stabilized) (UniProt O95352)” is 3.74; for “ATIC (effect direction: stabilized) (UniProt P31939)” it is less than 2.7; for “ATP1A1 (effect direction: stabilized) (UniProt P05023)” it is 3.18.
The figure for “ATP2A3 (effect direction: stabilized) (UniProt Q93084)” is 3.22.
“ATP2B4 (effect direction: stabilized) (UniProt P23634)”: the pEC50 amounted to 3.22.
The figure for “ATP2C1 (effect direction: stabilized) (UniProt P98194)” is 3.66; for “ATP11B (effect direction: stabilized) (UniProt Q9Y2G3)” it is 4.15.
The figure for “ATXN10 (effect direction: stabilized) (UniProt Q9UBB4)” is less than 2.7; for “BCL7A (effect direction: destabilized) (UniProt Q4VC05)” it is 3.03.
Take “BICD2 (effect direction: stabilized) (UniProt Q8TD16)”: the negative logarithm of the EC50 (pEC50) is less than 2.7.
In the case of “BLVRB (effect direction: stabilized) (UniProt P30043)” it was 2.87.
In the case of “BNIP2 (effect direction: stabilized) (UniProt Q12982)” it was less than 2.7; in that of “BOP1 (effect direction: stabilized) (UniProt Q14137)”, less than 2.7; in that of “C1QBP (effect direction: stabilized) (UniProt Q07021)”, less than 2.7.
The figure for “C12orf29 (effect direction: destabilized) (UniProt Q8N999)” is 3.11; for “CAB39 (effect direction: stabilized) (UniProt Q9Y376)” it is 3.15.
For the target “CACYBP (effect direction: stabilized) (UniProt Q9HB71)”, the pEC50 came out at 2.95.
The figure for “CAMK2G (effect direction: stabilized) (UniProt Q13555)” is 3.4; for “CAMKK2 (effect direction: stabilized) (UniProt Q96RR4)” it is 3.63.
As for “CAND1 (effect direction: stabilized) (UniProt Q86VP6)”, the pEC50 came out at 2.95.
As to “CAP1 (effect direction: stabilized) (UniProt Q01518)”, the pEC50 turned out to be 5.
The figure for “CAPN1 (effect direction: stabilized) (UniProt P07384)” is 3.17.
In the case of “CAPNS1 (effect direction: stabilized) (UniProt P04632)” it was 2.86; in that of “CARS2 (effect direction: stabilized) (UniProt Q9HA77)”, 3.14.
“CARS (effect direction: stabilized) (UniProt P49589)”: the negative-log EC50 (pEC50) is 3.63.
In the case of “CBWD1 (effect direction: stabilized) (UniProt Q9BRT8)” it was 2.96; in that of “CCDC12 (effect direction: destabilized) (UniProt Q8WUD4)”, 3.49.
The figure for “CCDC86 (effect direction: stabilized) (UniProt Q9H6F5)” is less than 2.7; for “CCNB1 (effect direction: stabilized) (UniProt P14635)” it is 4.27.
Turning to “CCNB2 (effect direction: stabilized) (UniProt O95067)”, the negative-log EC50 (pEC50) was 4.13.
In the case of “CCT5 (effect direction: stabilized) (UniProt P48643)” it was 3.02.
In the case of “CCT6A (effect direction: stabilized) (UniProt P40227)” it was 4.38; in that of “CCT7 (effect direction: stabilized) (UniProt Q99832)”, 4.39.
The figure for “CDC40 (effect direction: destabilized) (UniProt O60508)” is 3.22.
Consider “CDIPT (effect direction: destabilized) (UniProt O14735)”, for which the pEC50 was found to be 2.77.
